Laboratory results as given in patent US9062051B2, “Compounds and pharmaceutical compositions thereof for the treatment of proliferative disorders” (GALAPAGOS NV, priority 2014, dated 2015).

Assays:
Type in all cases: biochemical
Recombinant EphA7 = target: T1, Recombinant EphA7 (Homo sapiens, UniProt Q15375); test: EphA7 assay (33P incorporation into poly GT, filter plate); conditions: EphA7 potency; 0.15 μM ATP; read-out: IC50
T1 construct: purchased Carna 08-126
Procedure: (§1) The principle of the assay consists of the measurement of incorporated ^33P into the substrate poly GT when phosphorylated by the enzyme EphA7 using [^33P]-γ-ATP and ATP. Unincorporated ^33P is removed by loading the samples on a filter plate (using a harvester, Perkin Elmer) and 6 subsequent washing steps. ^33P incorporated in polyGT is measured on a Topcount after addition of microscint to the filter plates (Perkin Elmer).
Recombinant EphA7 (Carna Cat#08-126, 2 ng per well) was incubated with 0.1 mg/mL Poly(Glu,Tyr)sodium salt (4:1), MW 20 000-50 000 (Sigma catalog number P0275) in kinase reaction buffer (10 mM MOPS pH 7.2, 5 mM DTT, 0.01% Triton-X100, 5 mM MnCl2, 0.5 mM Na3VO4, 5 mM beta-glycerolphosphate), 0.15 μM non-radioactive ATP, 0.125 μCi/25 μl ^33P-gamma-ATP (Perkin Elmer, catalog number NEG602K) final concentrations with or without 5 μL containing test compound or vehicle (DMSO, 1% final concentration), in a total volume of 25 μL, in a polypropylene 96-well plate (Greiner, V-bottom). After 90 min at 30° C., reactions were stopped by adding of 25 μL/well of 150 mM phosphoric acid. All of the terminated kinase reaction was transferred to prewashed (75 mM phosphoric acid) 96 well filter plates (Perkin Elmer catalog number 6005177) using a cell harvester (Perkin Elmer). Plates were washed 6 times with 300 μL per well of a 75 mM phosphoric acid solution and the bottom of the plates was sealed. 40 μL/well of Microscint-20 was added, the top of the plates was sealed and readout was performed using the Topcount (Perkin Elmer). The ability of a test compound to inhibit the kinase activity was determined using counts per minutes (cpm) measured by the Topcount as:
(§2) Cpm (cpd): cpm determined for sample with test compound present
(§3) Cpm (control): cpm determined for sample with positive control inhibitor (10 μM staurosporine)
(§4) Cpm (vehicle): cpm determined in the presence of vehicle (1% DMSO)
(§5) Dose dilution series were prepared for the compounds enabling the testing of dose-response effects in the EphA7 assay and the calculation of the IC50 for each compound. Each compound was routinely tested at concentration of 20 μM followed by a 1/5 serial dilution, 10 points in a final concentration of 1% DMSO. When potency of compound series increased, more dilutions may be prepared and/or the top concentration may be lowered (e.g. 5 μM, 1 μM).

Recombinant EphB2 = target: T2, Recombinant EphB2 (Homo sapiens, UniProt P29323); test: EphB2 assay (33P incorporation into poly GT, filter plate); conditions: read-out: EphB2 potency IC50
T2 construct: purchased Carna 08-129
T2 sequence (P29323 19-986 isoform P29323-2 limits assumed): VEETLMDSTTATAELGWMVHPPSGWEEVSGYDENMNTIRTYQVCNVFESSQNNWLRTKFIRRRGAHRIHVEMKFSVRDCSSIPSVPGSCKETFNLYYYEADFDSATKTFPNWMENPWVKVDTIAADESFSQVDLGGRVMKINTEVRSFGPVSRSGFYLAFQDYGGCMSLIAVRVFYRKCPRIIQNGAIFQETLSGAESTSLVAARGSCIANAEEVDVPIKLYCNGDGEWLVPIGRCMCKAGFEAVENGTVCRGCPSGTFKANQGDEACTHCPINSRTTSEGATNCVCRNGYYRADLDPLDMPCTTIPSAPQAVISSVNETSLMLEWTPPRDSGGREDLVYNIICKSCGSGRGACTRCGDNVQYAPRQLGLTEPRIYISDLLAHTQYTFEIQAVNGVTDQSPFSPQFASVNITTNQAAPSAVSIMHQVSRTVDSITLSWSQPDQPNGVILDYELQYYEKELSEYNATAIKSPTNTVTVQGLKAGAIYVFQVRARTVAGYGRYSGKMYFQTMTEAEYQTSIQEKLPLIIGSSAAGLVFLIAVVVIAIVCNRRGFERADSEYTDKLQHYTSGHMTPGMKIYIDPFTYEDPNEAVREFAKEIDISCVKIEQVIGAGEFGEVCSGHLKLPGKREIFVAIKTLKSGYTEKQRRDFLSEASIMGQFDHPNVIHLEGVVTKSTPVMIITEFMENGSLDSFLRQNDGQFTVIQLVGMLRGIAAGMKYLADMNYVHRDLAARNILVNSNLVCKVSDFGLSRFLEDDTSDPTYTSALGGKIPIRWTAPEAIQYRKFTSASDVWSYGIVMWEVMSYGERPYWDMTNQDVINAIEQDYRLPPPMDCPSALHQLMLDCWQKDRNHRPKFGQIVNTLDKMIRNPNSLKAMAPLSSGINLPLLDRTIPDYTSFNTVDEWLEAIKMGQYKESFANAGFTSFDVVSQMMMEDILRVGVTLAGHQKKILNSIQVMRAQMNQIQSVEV
Procedure: as §1, with “EphB2” for “EphA7”
Recombinant EphB2 (Carna Cat#08-129, 0.6 ng per well) was incubated with 0.05 mg/mL Poly(Glu,Tyr)sodium salt (4:1), MW 20 000-50 000 (Sigma catalog number P0275) in kinase reaction buffer (10 mM MOPS pH 7.2, 5 mM DTT, 0.01% Triton-X100, 5 mM MnCl2, 0.5 mM Na3VO4, 5 mM beta-glycerolphosphate), 0.5 μM non-radioactive ATP, 0.25 μCi/25 μl ^33P-gamma-ATP (Perkin Elmer, catalog number NEG602K) final concentrations with or without 5 μL containing test compound or vehicle (DMSO, 1% final concentration), in a total volume of 25 μL, in a polypropylene 96-well plate (Greiner, V-bottom). After 45 min at 30° C., reactions were stopped by adding of 25 μL/well of 150 mM phosphoric acid. The experiment was then conducted as described for EphA7. The ability of a test compound to inhibit the kinase activity was determined using counts per minutes (cpm) measured by the Topcount as:
as §2, §3, §4
as §5, with “EphB2” for “EphA7”

EphA2 = target: T3, EphA2 (UniProt Ref: P29317) (Homo sapiens, UniProt P29317); test: EphA2 assay (Reaction Biology HotSpot radioactive kinase assay); conditions: ATP 10 μM; read-out: EphA2 potency IC50
T3 construct: purchased Reaction Biology
Procedure: Inhibition of EphA2 (UniProt Ref: P29317) by a test compound is determined by a commercially available Reaction Biology proprietary nanoliter radioactive HotSpot^SM assay (Reaction Biology, One great valley parkway, Suite 2, Malvern Pa., 19355, USA). The principle of the assay consists of the measurement of incorporated ^33P into poly[Glu:Tyr] (4:1) (0.2 mg/mL) when the substrate is phosphorylated by the enzyme using [^33P]-γ-ATP and ATP (10 μM).
To determine the IC50, a serial dilution of compound is tested starting from 10, or 3 μM (highest dilution) with a 1/3 dilution.

T1 sequence (Q15375 579-998 limits assumed): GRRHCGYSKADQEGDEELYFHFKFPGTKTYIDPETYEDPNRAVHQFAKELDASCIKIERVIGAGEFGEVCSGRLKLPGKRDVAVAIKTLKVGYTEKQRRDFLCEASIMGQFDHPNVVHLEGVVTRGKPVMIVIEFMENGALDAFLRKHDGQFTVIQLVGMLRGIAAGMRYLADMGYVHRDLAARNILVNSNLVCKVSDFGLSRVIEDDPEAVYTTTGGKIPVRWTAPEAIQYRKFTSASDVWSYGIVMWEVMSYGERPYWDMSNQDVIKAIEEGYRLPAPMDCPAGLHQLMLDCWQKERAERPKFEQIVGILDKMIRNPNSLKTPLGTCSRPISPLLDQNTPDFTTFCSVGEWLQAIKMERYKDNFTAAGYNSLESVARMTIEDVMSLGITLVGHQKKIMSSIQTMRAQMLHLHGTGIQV
T3 sequence (P29317 24-976): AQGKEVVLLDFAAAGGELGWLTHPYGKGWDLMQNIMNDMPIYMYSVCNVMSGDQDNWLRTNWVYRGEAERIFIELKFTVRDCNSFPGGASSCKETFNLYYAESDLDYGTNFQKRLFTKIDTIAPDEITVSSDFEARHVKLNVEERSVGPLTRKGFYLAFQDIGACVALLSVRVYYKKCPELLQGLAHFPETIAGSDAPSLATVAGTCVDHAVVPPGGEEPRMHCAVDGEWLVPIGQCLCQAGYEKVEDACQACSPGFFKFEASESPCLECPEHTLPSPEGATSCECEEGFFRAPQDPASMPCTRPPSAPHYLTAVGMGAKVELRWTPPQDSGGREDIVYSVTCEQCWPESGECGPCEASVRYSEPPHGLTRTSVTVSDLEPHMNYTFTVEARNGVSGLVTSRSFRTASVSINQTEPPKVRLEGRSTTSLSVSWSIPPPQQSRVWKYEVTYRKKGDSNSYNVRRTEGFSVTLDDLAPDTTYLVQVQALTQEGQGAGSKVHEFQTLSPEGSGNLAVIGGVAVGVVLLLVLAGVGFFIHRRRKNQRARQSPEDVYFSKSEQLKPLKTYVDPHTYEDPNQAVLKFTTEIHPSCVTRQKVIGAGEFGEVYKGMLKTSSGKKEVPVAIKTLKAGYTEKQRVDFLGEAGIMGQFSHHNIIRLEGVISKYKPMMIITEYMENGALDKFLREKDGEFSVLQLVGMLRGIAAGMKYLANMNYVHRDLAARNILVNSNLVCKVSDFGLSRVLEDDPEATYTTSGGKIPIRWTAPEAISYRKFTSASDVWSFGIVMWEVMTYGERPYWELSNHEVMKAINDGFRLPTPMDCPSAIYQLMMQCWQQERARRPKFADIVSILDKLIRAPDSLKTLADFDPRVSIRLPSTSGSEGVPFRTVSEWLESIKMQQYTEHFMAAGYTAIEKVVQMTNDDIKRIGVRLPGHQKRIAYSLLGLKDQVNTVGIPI

Compound	IC50 (Recombinant EphA7) [nM]	IC50 (Recombinant EphB2) [nM]	IC50 (EphA2) [nM]
Cc1cc(OCCN2CCOCC2)cc(C(=O)Nc2ccc(C)c(-c3ccc4c(C(C)O)n[nH]c4n3)c2)c1 (stereo not shown) [Compound 28, N-{3-[3-(1-Hydroxy-ethyl)-1H-pyrazolo[3,4-b]pyridin-6-yl]-4-methyl-phenyl}-3-methyl-5-(2-morpholin-4-yl-ethoxy)-benzamide]	> 1000	0.01 to 25	25 to 50
COc1cc(OC)cc(C(=O)Nc2cnc(C)c(-c3ccc4c(C5CC5)n[nH]c4n3)c2)c1 [Compound 34, N-(5-(3-cyclopropyl-1H-pyrazolo[3,4-b]pyridin-6-yl)-6-methylpyridin-3-yl)-3,5-dimethoxybenzamide]	> 1000	0.01 to 25	–
CCc1n[nH]c2nc(-c3cc(NC(=O)c4cc(OC)cc(OCCN5CCOCC5)c4)cnc3C)ccc12 [Compound 40, N-[5-(3-Ethyl-1H-pyrazolo[3,4-b]pyridin-6-yl)-6-methyl-pyridin-3-yl]-3-methoxy-5-(2-morpholin-4-yl-ethoxy)-benzamide]	> 1000	> 100	–
CCc1n[nH]c2nc(-c3cc(NC(=O)c4cccc(C(F)(F)F)c4)cnc3C)ccc12 [Compound 42, N-[5-(3-Ethyl-1H-pyrazolo[3,4-b]pyridin-6-yl)-6-methyl-pyridin-3-yl]-3-trifluoromethyl-benzamide]	> 1000	> 100	50 to 100
Cc1ccc(NC(=O)c2cccc(C(F)(F)F)c2)cc1-c1ccc2c([C@@H](C)O)n[nH]c2n1 [Compound 56, N-{3-[3-((R)-1-Hydroxy-ethyl)-1H-pyrazolo[3,4-b]pyridin-6-yl]-4-methyl-phenyl}-3-trifluoromethyl-benzamide]	> 1000	0.01 to 25	0.01 to 25

More lines, now with the values ahead:

IC50 (Recombinant EphA7) [nM]	IC50 (Recombinant EphB2) [nM]	IC50 (EphA2) [nM]	Compound
250 to 500	0.01 to 25	0.01 to 25	CCc1n[nH]c2nc(-c3cc(NC(=O)c4cc(C)cc(OCCN)c4)ccc3C)ccc12 [Compound 30, 3-(2-Amino-ethoxy)-N-[3-(3-ethyl-1H-pyrazolo[3,4-b]pyridin-6-yl)-4-methyl-phenyl]-5-methyl-benzamide]
0.01 to 250	0.01 to 25	0.01 to 25	CCc1n[nH]c2nc(-c3cc(NC(=O)c4cc(C)cc(OCCCN)c4)ccc3C)ccc12 [Compound 31, 3-(3-Amino-propoxy)-N-[3-(3-ethyl-1H-pyrazolo[3,4-b]pyridin-6-yl)-4-methyl-phenyl]-5-methyl-benzamide]
500 to 1000	> 100	0.01 to 25	CCc1n[nH]c2nc(-c3cc(NC(=O)c4cc(OCCN5CCOCC5)cc(C(F)(F)F)c4)ccc3C)ccc12 [Compound 36, N-[3-(3-Ethyl-1H-pyrazolo[3,4-b]pyridin-6-yl)-4-methyl-phenyl]-3-(2-morpholin-4-yl-ethoxy)-5-trifluoromethyl-benzamide]
250 to 500	> 100	0.01 to 25	CCc1n[nH]c2nc(-c3cc(NC(=O)c4cc(OC)cc(C5CC5)c4)cnc3C)ccc12 [Compound 38, 3-Cyclopropyl-N-[5-(3-ethyl-1H-pyrazolo[3,4-b]pyridin-6-yl)-6-methyl-pyridin-3-yl]-5-methoxy-benzamide]
250 to 500	0.01 to 25	0.01 to 25	CCc1n[nH]c2nc(-c3cc(NC(=O)c4cc(OC)cc(OCCCN)c4)ccc3C)ccc12 [Compound 45, 3-(3-Amino-propoxy)-N-[3-(3-ethyl-1H-pyrazolo[3,4-b]pyridin-6-yl)-4-methyl-phenyl]-5-methoxy-benzamide]
500 to 1000	25 to 50	0.01 to 25	CCc1n[nH]c2nc(-c3cc(NC(=O)c4cc(OC)cc(OCCCN)c4)cnc3C)ccc12 [Compound 46, 3-(3-Amino-propoxy)-N-[5-(3-ethyl-1H-pyrazolo[3,4-b]pyridin-6-yl)-6-methyl-pyridin-3-yl]-5-methoxy-benzamide]
